Test results taken from ChEMBL document CHEMBL1201862, “PubChem BioAssay data set” (2004).
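Where inhibition never reached the appropriate level, the endpoint shown equals the highest concentration tested. Otherwise, values were interpolated linearly from a five-concentration, 48-hour dose response in 96-well plates. Here, GI50 denotes the concentration required for 50% inhibition of growth.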 Calls of active or inactive are those of the source. No stated cut-off is given here; in the data, active = GI50 up to about 1.1 µM and inactive = higher.

Assays:
Assay in all cases: NCI-60 cell line screen, 48 h
[1] = system: 786-0
[2] = system: BT-549
[3] = system: CAKI-1
[4] = system: COLO 205
[5] = system: HCT-15
[6] = system: HT-29
[7] = system: M14
[8] = system: MDA-MB-231
[9] = system: MDA-N
[10] = system: NCI-H460
[11] = system: NCI-H522
[12] = system: OVCAR-8
[13] = system: PC-3
[14] = system: SK-MEL-28
[15] = system: SK-MEL-2
[16] = system: SK-MEL-5
[17] = system: SW-620
[18] = system: UACC-62
[19] = system: MOLT-4
[20] = system: SNB-75

Row | SMILES | GI50 [1] | GI50 [2] | GI50 [3] | GI50 [4] | GI50 [5] | GI50 [6] | GI50 [7] | GI50 [8] | GI50 [9] | GI50 [10] | GI50 [11] | GI50 [12] | GI50 [13] | GI50 [14] | GI50 [15] | GI50 [16] | GI50 [17] | GI50 [18] | GI50 [19] | GI50 [20]
1 | NC(=O)Nc1ccc(S(=O)(=O)Nc2ccc(S(N)(=O)=O)cc2)cc1 | > 100 µM (inactive) | > 100 µM (inactive) | > 100 µM (inactive) | > 100 µM (inactive) | > 100 µM | > 100 µM (inactive) | > 100 µM (inactive) | > 100 µM (inactive) | > 100 µM (inactive) | > 100 µM (inactive) | > 100 µM (inactive) | > 100 µM (inactive) | > 100 µM (inactive) | > 100 µM (inactive) | > 100 µM (inactive) | > 100 µM (inactive) | > 100 µM (inactive) | > 100 µM (inactive) | – | –
2 | CN1CCN(c2ccc3[nH]c(-c4ccc5[nH]c(-c6ccc(O)cc6)nc5c4)nc3c2)CC1 | 228 µM (inactive) | 455 µM (inactive) | 105 µM (inactive) | – | 224 µM | 92.7 µM (inactive) | 149 µM (inactive) | 481 µM (inactive) | 22.9 µM (inactive) | – | 9.82 µM (inactive) | – | 687 µM (inactive) | 19.8 µM (inactive) | > 100 µM (inactive) | 11.8 µM (inactive) | 102 µM (inactive) | – | 29.1 µM (inactive) | 353 µM (inactive)
3 | Cc1c(CNc2ccc(Cl)c(C(=O)NC(CC(=O)O)C(=O)O)c2)ccc2nc(N)nc(N)c12 (stereo unspecified) | < 0.01 µM (active) | 33.3 µM (inactive) | < 0.0311 µM (active) | 4.66 µM (inactive) | 0.0265 µM | < 0.0208 µM (active) | 0.0163 µM (active) | > 100 µM (inactive) | < 0.01 µM (active) | 0.0352 µM (active) | 3.83 µM (inactive) | 0.0399 µM (active) | 178 µM (inactive) | 10.1 µM (inactive) | > 100 µM (inactive) | 0.148 µM (active) | < 0.0175 µM (active) | 0.0501 µM (active) | – | > 32.3 µM (inactive)
4 | CC(C)(C)CNCCO | > 100 µM (inactive) | > 100 µM (inactive) | > 100 µM (inactive) | > 100 µM (inactive) | > 100 µM | > 100 µM (inactive) | > 100 µM (inactive) | > 100 µM (inactive) | > 100 µM (inactive) | > 100 µM (inactive) | > 100 µM (inactive) | > 100 µM (inactive) | > 100 µM (inactive) | > 100 µM (inactive) | > 100 µM (inactive) | > 100 µM (inactive) | > 100 µM (inactive) | > 100 µM (inactive) | – | > 100 µM (inactive)
5 | O=C(O)C1C2OC(C(Br)C2Br)C1C(=O)O (stereo unspecified) | > 100 µM (inactive) | > 100 µM (inactive) | > 100 µM (inactive) | > 100 µM (inactive) | > 100 µM | > 100 µM (inactive) | > 100 µM (inactive) | > 100 µM (inactive) | > 100 µM (inactive) | > 100 µM (inactive) | > 100 µM (inactive) | > 100 µM (inactive) | > 100 µM (inactive) | > 100 µM (inactive) | > 100 µM (inactive) | > 100 µM (inactive) | > 100 µM (inactive) | > 100 µM (inactive) | > 100 µM (inactive) | > 100 µM (inactive)
6 | CC[C@@]1(O)C(=O)OCc2c1cc1n(c2=O)Cc2c-1nc1ccccc1c2/C=N\NC(=O)C(N)CS (stereo partly specified) | 0.51 µM (active) | 10.8 µM (inactive) | 0.495 µM (active) | 41.4 µM (inactive) | 3.83 µM | 9.29 µM (inactive) | 0.665 µM (active) | 78.9 µM (inactive) | 9.4 µM (inactive) | 0.363 µM (active) | 0.883 µM (active) | 1.09 µM (active) | 3.52 µM (inactive) | 5.5 µM (inactive) | 46.3 µM (inactive) | 1.13 µM (inactive) | 1.37 µM (inactive) | 0.0614 µM (active) | 0.0794 µM (active) | 0.573 µM (active)
7 | COC(=O)CSC1CC(=O)c2c(Cl)sc(Cl)c21 (stereo unspecified) | > 100 µM (inactive) | > 100 µM (inactive) | > 100 µM (inactive) | > 100 µM (inactive) | > 100 µM | > 100 µM (inactive) | > 100 µM (inactive) | > 100 µM (inactive) | > 100 µM (inactive) | > 100 µM (inactive) | > 100 µM (inactive) | > 100 µM (inactive) | > 100 µM (inactive) | > 100 µM (inactive) | > 100 µM (inactive) | > 100 µM (inactive) | > 100 µM (inactive) | > 100 µM (inactive) | > 100 µM (inactive) | > 100 µM (inactive)
8 | Brc1ccc2c3c1[C@@H]1O[C@@H]1c1cccc(c1-3)[C@@H]1O[C@H]21 | 16.5 µM (inactive) | 21.1 µM (inactive) | 13.1 µM (inactive) | 21.8 µM (inactive) | 18.6 µM | 17.6 µM (inactive) | 14.5 µM (inactive) | 27.4 µM (inactive) | 17.6 µM (inactive) | – | 13.8 µM (inactive) | 13.8 µM (inactive) | 23.6 µM (inactive) | 17.6 µM (inactive) | 23.6 µM (inactive) | 16.9 µM (inactive) | 14.5 µM (inactive) | 17.2 µM (inactive) | > 53 µM (inactive) | 19.8 µM (inactive)
